The values below come from patent US20060286625A1, “Rapid enrichment for Listeria” (Kraft Foods Holdings, Inc., priority 2005, published 2006).

For this assay, the system named is environmental isolates. The assay can be described thus: Effect of Polymyxin B, Acriflavine HCl and Ceftazidime on environmental isolates. The assay is classed as cell-based. The conditions noted are these: used together in the Selective medium. Here is the method:
Nineteen non-Listeria organisms isolated from environmental sponges from meat and dairy manufacturing facilities were inoculated separately into Tryptic Soy broth (TSB, Difco) and incubated for 24 h at 30° C. The isolates were screened for growth in Selective and Non-Selective media by monitoring absorbance via a spectrophotometer. 900 μl of test media and either 100 μl of culture or Butterfield's Buffer (International BioProducts) were added to a cuvette and incubated at 30° C. Absorbance readings were taken at 660 nm on a spectrophotometer (Shimadzu UV160U) at To, 2 h, 4 h, and 6 h and compared to the corresponding blank cuvette with buffer. Growth was scored by absorbance readings.
The Non-Selective medium consisted of Universal Preenrichment Broth (UPB, Difco) with 0.4% Yeast Extract (YE, Difco). The Selective medium consisted of Universal Preenrichment Broth (UPB, Difco) with 0.4% Yeast Extract (YE, Difco), 0.001% Polymymin B, 0.0005% Acriflavine HCl, and 0.002% Ceftazidime.
Several environmental organisms screened via spectrophotometer were selected to test in mixed culture with Listeria. Environmental isolates were inoculated separately into TSB and incubated for 24 h at 30° C. The growth level was determined by serial dilutions plated on Tryptic Soy agar (TSA, Difco) and incubated at 30° C. for 24 h. Based on the cell counts, the culture was diluted in Butterfield's Buffer and a volume of the diluted culture targeting an initial cell count of 1000 CFU/mL was inoculated into the test media.
30 mL of Non-Selective or Selective medium was added to 10 ml of Butterfield's Buffer to simulate the addition of media to environment sponge. A Non-Selective and Selective medium was inoculated with Listeria culture alone, environmental isolate alone, and Listeria and environment isolate combined. The media were incubated in a water bath at 30° C. Serial dilutions of inoculated media were collected at To and 8 h and plated on Oxford Media Base and a differential media particular to the environmental isolate being tested (see Table 2). […]
On to Polymyxin B, for which the “Effectiveness as selective agents against environmental isolates (in words)” value is listed as “effective selective agents against many environmental isolates”. Next, Acriflavine HCl: “effective selective agents against many environmental isolates”; `CC(C)(O/N=C(\C(=O)N[C@@H]1C(=O)N2C(C(=O)[O-])=C(C[n+]3ccccc3)CS[C@H]12)c1csc(N)n1)C(=O)O` [Ceftazidime]: “effective selective agents against many environmental isolates”.
